Source: ChEMBL document CHEMBL1137374, “Discovery of 6-N,N-bis(2,2,2-trifluoroethyl)amino- 4-trifluoromethylquinolin-2(1H)-one as a novel selective androgen receptor modulator” (J Med Chem, 2006)
Calls of active or inactive are those of the source. The rule behind the calls is not given here.

Assays:
Androgen receptor [1] = target: T1, Androgen receptor (Homo sapiens, UniProt P10275)
T1 sequence (P10275 whole entry): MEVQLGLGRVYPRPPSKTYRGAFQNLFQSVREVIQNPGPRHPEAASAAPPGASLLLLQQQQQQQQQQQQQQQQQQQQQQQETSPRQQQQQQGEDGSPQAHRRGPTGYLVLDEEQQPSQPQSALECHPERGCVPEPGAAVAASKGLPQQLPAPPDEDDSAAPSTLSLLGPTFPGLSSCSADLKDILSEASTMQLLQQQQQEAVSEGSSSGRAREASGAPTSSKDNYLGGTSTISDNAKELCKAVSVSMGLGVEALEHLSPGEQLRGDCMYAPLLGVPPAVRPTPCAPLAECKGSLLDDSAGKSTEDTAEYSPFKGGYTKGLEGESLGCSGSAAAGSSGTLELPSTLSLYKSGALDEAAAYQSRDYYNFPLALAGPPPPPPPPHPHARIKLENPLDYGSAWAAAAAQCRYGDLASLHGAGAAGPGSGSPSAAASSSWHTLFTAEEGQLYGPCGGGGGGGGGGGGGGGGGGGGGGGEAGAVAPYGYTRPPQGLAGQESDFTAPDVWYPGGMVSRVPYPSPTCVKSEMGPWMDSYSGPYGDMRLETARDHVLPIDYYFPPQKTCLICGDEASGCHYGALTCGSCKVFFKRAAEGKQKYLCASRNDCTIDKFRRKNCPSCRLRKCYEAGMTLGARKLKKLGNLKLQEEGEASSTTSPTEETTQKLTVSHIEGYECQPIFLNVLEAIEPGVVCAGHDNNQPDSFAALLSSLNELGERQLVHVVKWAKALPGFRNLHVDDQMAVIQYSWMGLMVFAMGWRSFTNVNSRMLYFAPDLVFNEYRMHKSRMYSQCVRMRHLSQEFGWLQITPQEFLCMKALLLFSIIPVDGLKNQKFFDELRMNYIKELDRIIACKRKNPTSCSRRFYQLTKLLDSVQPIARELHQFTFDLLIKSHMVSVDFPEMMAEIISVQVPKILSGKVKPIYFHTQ
Description: Displacement of [3H]DHT from human androgen receptor expressed in MDA-MB-453 cells by whole cell receptor binding assay

Androgen receptor [2] = target: T1, Androgen receptor; remark: listed apart in the source
Description: Agonist activity at human androgen receptor in CV1 cells measured as stimulation of luciferase reporter gene activity by cotransfection assay

Androgen receptor [3] = target: T1, Androgen receptor; remark: listed apart in the source
Description: Antagonist activity against human androgen receptor in CV1 cells measured as inhibition of DHT-stimulated luciferase reporter gene activity by cotransfection assay

Rattus norvegicus [4] = test: Androgenic activity in orchidectomized rat at 2.0 mg/kg, sc measured as increase in ventral prostate weight to eugonadal level; assay type: functional, organism-based; design: dose 2 mg/kg; details: Prostate gland
Rattus norvegicus [5] = test: Anabolic activity in orchidectomized rat at 2.0 mg/kg, sc measured as increase in levator ani muscle weight to eugonadal level; assay type: functional, organism-based; design: dose 2 mg/kg
Rattus norvegicus [6] = species on record: Rattus norvegicus; test: Anabolic activity in orchidectomized rat measured as increase in levator ani muscle weight relative to intact rat; assay type: functional
Rattus norvegicus [7] = test: Anabolic activity in orchidectomized rat at 3.0 mg/kg, po measured as increase in levator ani muscle weight to eugonadal level; assay type: functional, organism-based; design: dose 3 mg/kg
Rattus norvegicus [8] = test: Androgenic activity in orchidectomized rat at 100 mg/kg, po measured as increase in ventral prostate weight to intact level; assay type: functional, organism-based; design: dose 100 mg/kg; details: Prostate gland
Glucocorticoid receptor = target: T2, Glucocorticoid receptor (Homo sapiens, UniProt P04150); test: Binding affinity to glucocorticoid receptor
T2 sequence (P04150 whole entry): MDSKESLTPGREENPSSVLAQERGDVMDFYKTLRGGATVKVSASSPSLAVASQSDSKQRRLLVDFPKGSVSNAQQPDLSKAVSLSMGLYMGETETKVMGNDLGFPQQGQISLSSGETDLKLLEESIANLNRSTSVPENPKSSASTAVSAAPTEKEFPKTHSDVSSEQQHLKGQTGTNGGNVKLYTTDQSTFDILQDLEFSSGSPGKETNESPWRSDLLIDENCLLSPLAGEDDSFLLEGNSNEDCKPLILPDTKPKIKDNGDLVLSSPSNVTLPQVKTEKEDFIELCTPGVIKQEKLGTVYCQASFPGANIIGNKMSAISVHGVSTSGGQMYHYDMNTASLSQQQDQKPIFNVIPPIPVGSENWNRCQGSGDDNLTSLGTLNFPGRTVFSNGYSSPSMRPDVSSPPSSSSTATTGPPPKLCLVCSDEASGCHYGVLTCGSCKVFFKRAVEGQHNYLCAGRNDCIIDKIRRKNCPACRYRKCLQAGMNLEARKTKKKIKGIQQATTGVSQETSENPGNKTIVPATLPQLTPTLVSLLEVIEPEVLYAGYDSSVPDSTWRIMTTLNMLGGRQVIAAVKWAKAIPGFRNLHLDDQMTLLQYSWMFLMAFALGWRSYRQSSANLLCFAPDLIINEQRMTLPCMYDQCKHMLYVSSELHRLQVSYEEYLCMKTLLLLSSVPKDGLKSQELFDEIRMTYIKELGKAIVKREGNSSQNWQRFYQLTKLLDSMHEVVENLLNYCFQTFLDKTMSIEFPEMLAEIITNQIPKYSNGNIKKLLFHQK

[9] = target: T3, Mineralocorticoid receptor (Homo sapiens, UniProt P08235); test: Binding affinity to mineralocorticoid receptor
T3 sequence (P08235 whole entry): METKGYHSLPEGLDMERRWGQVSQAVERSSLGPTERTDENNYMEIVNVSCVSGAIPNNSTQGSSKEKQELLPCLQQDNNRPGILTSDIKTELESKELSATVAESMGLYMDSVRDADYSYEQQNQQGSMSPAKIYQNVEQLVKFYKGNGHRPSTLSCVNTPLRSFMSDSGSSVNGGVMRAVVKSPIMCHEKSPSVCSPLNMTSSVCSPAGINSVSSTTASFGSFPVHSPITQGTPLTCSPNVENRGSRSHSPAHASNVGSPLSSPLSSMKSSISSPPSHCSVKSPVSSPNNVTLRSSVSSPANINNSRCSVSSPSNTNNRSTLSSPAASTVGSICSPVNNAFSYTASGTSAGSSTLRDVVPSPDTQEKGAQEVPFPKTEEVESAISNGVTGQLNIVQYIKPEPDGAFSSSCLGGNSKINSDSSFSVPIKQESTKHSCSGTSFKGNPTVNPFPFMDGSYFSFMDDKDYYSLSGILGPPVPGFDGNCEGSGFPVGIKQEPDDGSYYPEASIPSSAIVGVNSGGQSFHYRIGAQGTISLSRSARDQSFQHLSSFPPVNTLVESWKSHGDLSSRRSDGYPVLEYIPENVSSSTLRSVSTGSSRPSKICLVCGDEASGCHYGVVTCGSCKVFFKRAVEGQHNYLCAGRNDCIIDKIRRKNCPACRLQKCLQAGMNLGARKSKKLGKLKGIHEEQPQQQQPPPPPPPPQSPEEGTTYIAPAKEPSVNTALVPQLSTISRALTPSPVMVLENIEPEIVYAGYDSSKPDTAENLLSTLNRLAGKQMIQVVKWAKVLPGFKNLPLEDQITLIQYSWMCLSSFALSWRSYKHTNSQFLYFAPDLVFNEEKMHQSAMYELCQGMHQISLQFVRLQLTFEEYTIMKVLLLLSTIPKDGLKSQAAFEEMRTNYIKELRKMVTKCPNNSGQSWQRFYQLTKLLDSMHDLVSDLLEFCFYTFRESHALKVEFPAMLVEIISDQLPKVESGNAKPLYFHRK

Progesterone receptor = target: T4, Progesterone receptor (Homo sapiens, UniProt P06401)
T4 sequence (P06401 whole entry): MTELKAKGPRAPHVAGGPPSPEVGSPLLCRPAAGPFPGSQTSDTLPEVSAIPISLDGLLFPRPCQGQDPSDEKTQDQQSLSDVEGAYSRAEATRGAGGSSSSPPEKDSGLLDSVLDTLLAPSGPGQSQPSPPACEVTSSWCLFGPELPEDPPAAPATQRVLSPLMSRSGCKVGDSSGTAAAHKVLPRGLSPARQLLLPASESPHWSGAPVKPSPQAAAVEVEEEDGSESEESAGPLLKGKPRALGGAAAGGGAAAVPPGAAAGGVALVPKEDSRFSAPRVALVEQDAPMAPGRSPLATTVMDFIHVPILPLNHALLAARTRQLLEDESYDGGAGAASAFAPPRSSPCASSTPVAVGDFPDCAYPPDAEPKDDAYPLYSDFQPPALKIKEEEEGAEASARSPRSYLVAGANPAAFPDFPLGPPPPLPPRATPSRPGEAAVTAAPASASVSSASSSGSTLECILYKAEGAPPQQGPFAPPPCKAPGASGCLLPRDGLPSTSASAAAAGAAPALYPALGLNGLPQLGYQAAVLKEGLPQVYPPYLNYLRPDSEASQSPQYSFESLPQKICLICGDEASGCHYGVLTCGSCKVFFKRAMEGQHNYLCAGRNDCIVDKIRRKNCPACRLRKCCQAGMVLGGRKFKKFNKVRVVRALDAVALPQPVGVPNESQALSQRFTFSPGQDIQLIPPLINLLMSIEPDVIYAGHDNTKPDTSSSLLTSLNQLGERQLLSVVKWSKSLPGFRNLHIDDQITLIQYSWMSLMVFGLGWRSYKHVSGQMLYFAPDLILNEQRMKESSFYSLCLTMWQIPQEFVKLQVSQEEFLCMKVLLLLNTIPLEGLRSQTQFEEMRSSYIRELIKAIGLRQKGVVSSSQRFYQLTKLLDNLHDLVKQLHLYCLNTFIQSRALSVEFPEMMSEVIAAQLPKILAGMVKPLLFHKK
Description: Binding affinity to progesterone receptor

Estrogen receptor = target: T5, Estrogen receptor (Homo sapiens, UniProt P03372)
T5 sequence (P03372 whole entry): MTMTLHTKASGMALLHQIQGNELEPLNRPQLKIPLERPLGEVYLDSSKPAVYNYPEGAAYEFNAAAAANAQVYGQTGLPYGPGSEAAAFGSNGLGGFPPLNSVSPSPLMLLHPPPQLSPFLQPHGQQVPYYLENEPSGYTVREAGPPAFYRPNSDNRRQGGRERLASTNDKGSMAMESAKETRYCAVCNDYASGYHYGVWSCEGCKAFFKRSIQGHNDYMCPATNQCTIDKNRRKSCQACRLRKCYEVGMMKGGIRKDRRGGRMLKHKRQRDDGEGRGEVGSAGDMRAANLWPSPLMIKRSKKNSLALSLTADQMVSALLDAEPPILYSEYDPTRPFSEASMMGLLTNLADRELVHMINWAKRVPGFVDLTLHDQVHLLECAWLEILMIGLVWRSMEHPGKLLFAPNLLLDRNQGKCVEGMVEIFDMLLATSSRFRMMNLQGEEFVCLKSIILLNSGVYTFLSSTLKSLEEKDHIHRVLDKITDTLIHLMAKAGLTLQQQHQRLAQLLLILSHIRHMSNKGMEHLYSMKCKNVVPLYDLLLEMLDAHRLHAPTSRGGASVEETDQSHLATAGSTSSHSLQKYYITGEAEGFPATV
Description: Binding affinity to estrogen receptor

Oc1cc(C(F)(F)F)c2cc(N(CC3CC3)CC(F)(F)F)ccc2n1
Ki (Androgen receptor [1]): 7.1 nM | EC50 (Androgen receptor [2]): 2.8 nM | IC50 (Androgen receptor [3]): > 10 µM

C[C@]12CC[C@H]3[C@@H](CCC4=CC(=O)CC[C@@]43C)[C@@H]1CC[C@@H]2O
Activity (Rattus norvegicus [4]): Active | Activity (Rattus norvegicus [5]): Active

O=c1cc(C(F)(F)F)c2cc(N(CC(F)(F)F)CC(F)(F)F)ccc2[nH]1
Activity (Rattus norvegicus [6]): 150% | Activity (Rattus norvegicus [7]): Active | Activity (Rattus norvegicus [8]): Active | Ki (Glucocorticoid receptor): > 1000 nM | Ki [9]: > 1000 nM | Ki (Progesterone receptor): > 1000 nM | Ki (Estrogen receptor): > 1000 nM
